In the supplement of paper PMC10307832:

Tests used:
Test in all cases: relative viability (nuclei count vs DMSO), 5 days (fraction); higher = more cells survive
Entinostat + Luminespib = compound: Nc1ccccc1NC(=O)c1ccc(CNC(=O)OCc2cccnc2)cc1 [Entinostat] + CCNC(=O)c1noc(-c2cc(C(C)C)c(O)cc2O)c1-c1ccc(CN2CCOCC2)cc1 [Luminespib] (partner 0.01 µM)
How it was run: (§1)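 Relative viability divides the nuclei count in treated wells by that in vehicle wells. Lung cancer cell lines were seeded in 1536-well plates, dosed by pin tool the next day, and fixed and stained after 5 days in one step with final 0.05% Triton X-100, 1% formaldehyde and 1 ug/ml Hoechst. Dosing was a single drug or a fixed anchor-drug dose plus five library-drug doses (not always all listed) in √10 steps, and values are medians of duplicate plates imaged at 4×.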

SGI-1776 + Linsitinib = compound: CN1CCC(CNc2ccc3ncc(-c4cccc(OC(F)(F)F)c4)n3n2)CC1 [SGI-1776] + C[C@]1(O)C[C@@H](c2nc(-c3ccc4ccc(-c5ccccc5)nc4c3)c3c(N)nccn32)C1 [Linsitinib] (partner 1 µM)
How it was run: as §1

Entinostat + OSI-027 = compound: Nc1ccccc1NC(=O)c1ccc(CNC(=O)OCc2cccnc2)cc1 [Entinostat] + COc1cccc2cc(-c3nc([C@H]4CC[C@H](C(=O)O)CC4)n4ncnc(N)c34)[nH]c12 [OSI-027] (partner 0.5 µM)
How it was run: as §1

Entinostat + Pemetrexed = compound: Nc1ccccc1NC(=O)c1ccc(CNC(=O)OCc2cccnc2)cc1 [Entinostat] + Nc1nc2[nH]cc(CCc3ccc(C(=O)N[C@@H](CCC(=O)O)C(=O)O)cc3)c2c(=O)[nH]1 [Pemetrexed] (partner 0.2 µM)
How it was run: as §1

Cell Line | relative viability (Entinostat + Luminespib; first compound 0.02 µM) | relative viability (Entinostat + Luminespib; first compound 0.06325 µM) | relative viability (Entinostat + Luminespib; first compound 0.2 µM) | relative viability (Entinostat + Luminespib; first compound 0.6325 µM) | relative viability (Entinostat + Luminespib; first compound 2 µM) | relative viability (SGI-1776 + Linsitinib; first compound 0.08 µM) | relative viability (SGI-1776 + Linsitinib; first compound 0.8 µM) | relative viability (SGI-1776 + Linsitinib; first compound 2.53 µM) | relative viability (SGI-1776 + Linsitinib; first compound 8 µM) | relative viability (Entinostat + OSI-027; first compound 0.02 µM) | relative viability (Entinostat + OSI-027; first compound 0.06325 µM) | relative viability (Entinostat + OSI-027; first compound 0.2 µM) | relative viability (Entinostat + OSI-027; first compound 0.6325 µM) | relative viability (Entinostat + OSI-027; first compound 2 µM) | relative viability (Entinostat + Pemetrexed; first compound 0.02 µM) | relative viability (Entinostat + Pemetrexed; first compound 0.06325 µM) | relative viability (Entinostat + Pemetrexed; first compound 0.2 µM) | relative viability (Entinostat + Pemetrexed; first compound 0.6325 µM) | relative viability (Entinostat + Pemetrexed; first compound 2 µM)
NCI-H661 | 0.838 | 0.868 | 0.834 | 0.642 | 0.493 | 0.74 | 0.643 | 0.545 | 0.502 | 0.688 | 0.757 | 0.724 | 0.54 | 0.629 | 0.886 | 0.916 | 0.814 | 0.663 | 0.354
NCI-H838 | 0.291 | 0.257 | 0.291 | 0.196 | 0.201 | 1.03 | 0.982 | 1.02 | 0.684 | 0.46 | 0.489 | 0.474 | 0.487 | 0.318 | 0.231 | 0.222 | 0.268 | 0.247 | 0.183
NCI-H1355 | 0.724 | 0.611 | 0.616 | 0.504 | 0.418 | 0.92 | 0.899 | 0.792 | 0.729 | 0.476 | 0.434 | 0.397 | 0.27 | 0.252 | 0.99 | 0.945 | 0.874 | 0.749 | 0.614
NCI-H1395 | 0.711 | 0.663 | 0.634 | 0.659 | 0.6 | 1.19 | 1.08 | 0.938 | 0.746 | 0.716 | 0.764 | 0.583 | 0.647 | 0.505 | 0.884 | 1.05 | 0.911 | 0.76 | 0.719
NCI-H1437 | 0.829 | 0.853 | 0.552 | 0.301 | 0.257 | 1.03 | 1.03 | 0.952 | 0.452 | 0.786 | 0.581 | 0.306 | 0.218 | 0.203 | 0.318 | 0.282 | 0.231 | 0.178 | 0.148
NCI-H1563 | 0.515 | 0.503 | 0.478 | 0.483 | 0.47 | 1.14 | 1.19 | 1.16 | 1.08 | 0.723 | 0.687 | 0.707 | 0.653 | 0.547 | 0.77 | 0.906 | 0.837 | 0.826 | 0.679
NCI-H1651 | 0.795 | 1.01 | 0.742 | 0.724 | 0.64 | 1.01 | 0.925 | 0.938 | 0.566 | 0.747 | 0.653 | 0.71 | 0.608 | 0.542 | 0.715 | 0.777 | 0.655 | 0.639 | 0.435
NCI-H1666 | 1.05 | 1.19 | 1.04 | 0.701 | 0.445 | 0.856 | 0.83 | 0.772 | 0.493 | 0.906 | 0.897 | 0.859 | 0.618 | 0.606 | 0.866 | 0.989 | 0.913 | 0.75 | 0.579
